In US9302999B2, “Substituted triazoles as herbicides” (E. I. DU PONT DE NEMOURS AND COMPANY, priority 2012, dated 2016):

Assays:
Format in all cases: in vivo
[1] = test system: barnyardgrass (Echinochloa crus-galli); experiment: Test A pre-/postemergence: barnyardgrass
Summary of the method: (§1)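 Visual 0–100 injury ratings (0 no effect, 100 complete control) taken about ten days after treatment, relative to untreated controls. Preemergence treatment was a directed soil spray; postemergence plants were 2–10 cm tall at one- to two-leaf stage. Soil: loam/sand blend.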

[2] = test system: crabgrass, large (large crabgrass, Digitaria sanguinalis); experiment: Test A pre-/postemergence: crabgrass, large
Summary of the method: as §1

[3] = test system: foxtail, giant (giant foxtail, Setaria faberii); experiment: Test A pre-/postemergence: foxtail, giant
Summary of the method: as §1

[4] = test system: morningglory (Ipomoea spp.); experiment: Test A pre-/postemergence: morningglory
Summary of the method: as §1

[5] = test system: pigweed (Amaranthus retroflexus); experiment: Test A pre-/postemergence: pigweed
Summary of the method: as §1

[6] = test system: velvetleaf (Abutilon theophrasti); experiment: Test A pre-/postemergence: velvetleaf
Summary of the method: as §1

[7] = test system: wheat (Triticum aestivum); experiment: Test A pre-/postemergence: wheat
Summary of the method: as §1

corn (Zea mays) = experiment: Test A pre-/postemergence: corn
Summary of the method: as §1

rice (Oryza sativa) = experiment: Test C flooded paddy test: rice; details: scale 0 to 100 (0 no effect, 100 complete control)
Summary of the method: (§2)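 Rating: visual, 0–100 (100 = complete control), versus untreated controls after 13 to 15 greenhouse days. Treatment went into paddy water held at 3 cm over the soil, on plants grown to two leaves.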

[8] = test system: sedge, umbrella (small-flower umbrella sedge, Cyperus difformis); experiment: Test C flooded paddy test: sedge, umbrella; details: scale 0 to 100 (0 no effect, 100 complete control)
Summary of the method: as §2

[9] = test system: ducksalad (Heteranthera limosa); experiment: Test C flooded paddy test: ducksalad; details: scale 0 to 100 (0 no effect, 100 complete control)
Summary of the method: as §2

[10] = test system: barnyardgrass (Echinochloa crus-galli); experiment: Test C flooded paddy test: barnyardgrass; details: scale 0 to 100 (0 no effect, 100 complete control)
Summary of the method: as §2

[11] = Postemergence, 125 g ai/ha, 0 to 100 scale, 0 is no effect, 100 is complete control
[12] = Postemergence, 500 g ai/ha, visual rating on 0 to 100 scale (0 no effect, 100 complete control), approximately ten days
[13] = Preemergence, 125 g ai/ha, 0 to 100 scale where 0 is no effect and 100 is complete control
[14] = Preemergence, 500 g ai/ha, 0 to 100 scale (0 no effect, 100 complete control)
[15] = Flood (flooded paddy test), 125 g ai/ha, visual rating after 13 to 15 days
[16] = Flood (flooded paddy test), 250 g ai/ha, visual rating after 13 to 15 days
[17] = Postemergence, 1000 g ai/ha, visual rating on 0 to 100 scale (0 no effect, 100 complete control), approximately ten days
[18] = Preemergence, 1000 g ai/ha, 0 to 100 scale, 0 is no effect, 100 is complete control

SMILES: Cc1nn(-c2ccc(F)cc2)nc1Oc1cc(C(F)(F)F)nn1C [Compound 126]
- Barnyardgrass plant response rating [1, 11]: 20
- Barnyardgrass plant response rating [1, 12]: 70
- Plant response rating, Barnyardgrass [1, 13]: 70
- Plant response rating, Barnyardgrass [1, 14]: 80
- Crabgrass, Large plant response rating [2, 11]: 90
- Crabgrass, Large plant response rating [2, 12]: 90
- Plant response rating, Crabgrass, Large [2, 13]: 100
- Plant response rating, Crabgrass, Large [2, 14]: 100
- Foxtail, Giant plant response rating [3, 11]: 60
- Foxtail, Giant plant response rating [3, 12]: 90
- Plant response rating, Foxtail, Giant [3, 13]: 70
- Plant response rating, Foxtail, Giant [3, 14]: 90
- Morningglory plant response rating [4, 11]: 70
- Morningglory plant response rating [4, 12]: 80
- Plant response rating, Morningglory [4, 13]: 10
- Plant response rating, Morningglory [4, 14]: 30
- Pigweed plant response rating [5, 11]: 100
- Pigweed plant response rating [5, 12]: 100
- Plant response rating, Pigweed [5, 13]: 100
- Plant response rating, Pigweed [5, 14]: 100
- Velvetleaf plant response rating [6, 11]: 40
- Velvetleaf plant response rating [6, 12]: 80
- Plant response rating, Velvetleaf [6, 13]: 10
- Plant response rating, Velvetleaf [6, 14]: 40
- Wheat plant response rating [7, 11]: 10
- Wheat plant response rating [7, 12]: 20
- Plant response rating, Wheat [7, 13]: 0
- Plant response rating, Wheat [7, 14]: 0
- Corn plant response rating (corn (Zea mays); [11]): 20
- Corn plant response rating (corn (Zea mays); [12]): 30
- Plant response rating, Corn (corn (Zea mays); [13]): 0
- Plant response rating, Corn (corn (Zea mays); [14]): 20
- Plant response rating, Rice (rice (Oryza sativa); [15]): 10
- Plant response rating, Rice (rice (Oryza sativa); [16]): 20
- Plant response rating, Rice (rice (Oryza sativa); Flood, 31 g ai/ha): 0
- Plant response rating, Rice (rice (Oryza sativa); Flood, 62 g ai/ha): 0
- Plant response rating, Sedge, Umbrella [8, 15]: 75
- Plant response rating, Sedge, Umbrella [8, 16]: 80
- Plant response rating, Sedge, Umbrella ([8]; Flood, 31 g ai/ha): 30
- Plant response rating, Sedge, Umbrella ([8]; Flood, 62 g ai/ha): 40
- Plant response rating, Ducksalad [9, 15]: 20
- Plant response rating, Ducksalad [9, 16]: 65
- Plant response rating, Ducksalad ([9]; Flood, 31 g ai/ha): 0
- Plant response rating, Ducksalad ([9]; Flood, 62 g ai/ha): 0
- Plant response rating, Barnyardgrass [10, 15]: 30
- Plant response rating, Barnyardgrass [10, 16]: 40
- Plant response rating, Barnyardgrass ([10]; Flood, 31 g ai/ha): 0
- Plant response rating, Barnyardgrass ([10]; Flood, 62 g ai/ha): 0

SMILES: CCc1nn(-c2ccc(C(F)(F)F)cc2)nc1Cn1cnc(C(F)(F)F)n1 [Compound 130]
- Barnyardgrass plant response rating [1, 17]: 50
- Barnyardgrass plant response rating [1, 18]: 50
- Crabgrass, Large plant response rating [2, 17]: 90
- Crabgrass, Large plant response rating [2, 18]: 90
- Foxtail, Giant plant response rating [3, 17]: 80
- Foxtail, Giant plant response rating [3, 18]: 90
- Morningglory plant response rating [4, 17]: 100
- Morningglory plant response rating [4, 18]: 40
- Pigweed plant response rating [5, 17]: 100
- Pigweed plant response rating [5, 18]: 90
- Velvetleaf plant response rating [6, 17]: 100
- Velvetleaf plant response rating [6, 18]: 20
- Wheat plant response rating [7, 17]: 30
- Wheat plant response rating [7, 18]: 10
- Corn plant response rating (corn (Zea mays); [17]): 30
- Corn plant response rating (corn (Zea mays); [18]): 0
- Plant response rating, Rice (rice (Oryza sativa); [16]): 15
- Plant response rating, Rice (rice (Oryza sativa); Flood, 62 g ai/ha): 0
- Plant response rating, Sedge, Umbrella [8, 16]: 75
- Plant response rating, Sedge, Umbrella ([8]; Flood, 62 g ai/ha): 30
- Plant response rating, Ducksalad [9, 16]: 20
- Plant response rating, Ducksalad ([9]; Flood, 62 g ai/ha): 0
- Plant response rating, Barnyardgrass [10, 16]: 15
- Plant response rating, Barnyardgrass ([10]; Flood, 62 g ai/ha): 0

SMILES: CCc1nn(-c2ccc(C(F)(F)F)cc2)nc1Cn1nc(C(F)(F)F)cc1C [Compound 131]
- Barnyardgrass plant response rating [1, 17]: 30
- Barnyardgrass plant response rating [1, 18]: 20
- Crabgrass, Large plant response rating [2, 17]: 90
- Crabgrass, Large plant response rating [2, 18]: 90
- Foxtail, Giant plant response rating [3, 17]: 50
- Foxtail, Giant plant response rating [3, 18]: 90
- Morningglory plant response rating [4, 17]: 70
- Morningglory plant response rating [4, 18]: 10
- Pigweed plant response rating [5, 17]: 100
- Pigweed plant response rating [5, 18]: 90
- Velvetleaf plant response rating [6, 17]: 40
- Velvetleaf plant response rating [6, 18]: 0
- Wheat plant response rating [7, 17]: 0
- Wheat plant response rating [7, 18]: 0
- Corn plant response rating (corn (Zea mays); [17]): 30
- Corn plant response rating (corn (Zea mays); [18]): 0
- Plant response rating, Rice (rice (Oryza sativa); [16]): 0
- Plant response rating, Rice (rice (Oryza sativa); Flood, 62 g ai/ha): 0
- Plant response rating, Sedge, Umbrella [8, 16]: 0
- Plant response rating, Sedge, Umbrella ([8]; Flood, 62 g ai/ha): 0
- Plant response rating, Ducksalad [9, 16]: 20
- Plant response rating, Ducksalad ([9]; Flood, 62 g ai/ha): 0
- Plant response rating, Barnyardgrass [10, 16]: 10
- Plant response rating, Barnyardgrass ([10]; Flood, 62 g ai/ha): 0

SMILES: Cc1nn(-c2ccc(C(F)(F)F)cc2)nc1Cn1cnc(C(F)(F)F)n1 [Compound 132]
- Barnyardgrass plant response rating [1, 17]: 80
- Barnyardgrass plant response rating [1, 18]: 90
- Crabgrass, Large plant response rating [2, 17]: 90
- Crabgrass, Large plant response rating [2, 18]: 100
- Foxtail, Giant plant response rating [3, 17]: 90
- Foxtail, Giant plant response rating [3, 18]: 100
- Morningglory plant response rating [4, 17]: 100
- Morningglory plant response rating [4, 18]: 60
- Pigweed plant response rating [5, 17]: 100
- Pigweed plant response rating [5, 18]: 100
- Velvetleaf plant response rating [6, 17]: 90
- Velvetleaf plant response rating [6, 18]: 60
- Wheat plant response rating [7, 17]: 30
- Wheat plant response rating [7, 18]: 0
- Corn plant response rating (corn (Zea mays); [17]): 30
- Corn plant response rating (corn (Zea mays); [18]): 0
- Plant response rating, Rice (rice (Oryza sativa); [16]): 0
- Plant response rating, Rice (rice (Oryza sativa); Flood, 62 g ai/ha): 0
- Plant response rating, Sedge, Umbrella [8, 16]: 65
- Plant response rating, Sedge, Umbrella ([8]; Flood, 62 g ai/ha): 0
- Plant response rating, Ducksalad [9, 16]: 20
- Plant response rating, Ducksalad ([9]; Flood, 62 g ai/ha): 0
- Plant response rating, Barnyardgrass [10, 16]: 0
- Plant response rating, Barnyardgrass ([10]; Flood, 62 g ai/ha): 0

SMILES: CCc1nn(-c2ccc(C(F)(F)F)cc2)nc1Cn1cnc(C(F)(F)F)c1 [Compound 133]
- Barnyardgrass plant response rating [1, 17]: 40
- Plant response rating, Barnyardgrass [1, 18]: 40
- Crabgrass, Large plant response rating [2, 17]: 80
- Plant response rating, Crabgrass, Large [2, 18]: 90
- Foxtail, Giant plant response rating [3, 17]: 70
- Plant response rating, Foxtail, Giant [3, 18]: 90
- Morningglory plant response rating [4, 17]: 90
- Plant response rating, Morningglory [4, 18]: 40
- Pigweed plant response rating [5, 17]: 100
- Plant response rating, Pigweed [5, 18]: 90
- Velvetleaf plant response rating [6, 17]: 90
- Plant response rating, Velvetleaf [6, 18]: 40
- Wheat plant response rating [7, 17]: 30
- Plant response rating, Wheat [7, 18]: 0
- Corn plant response rating (corn (Zea mays); [17]): 20
- Plant response rating, Corn (corn (Zea mays); [18]): 10
- Plant response rating, Rice (rice (Oryza sativa); [16]): 0
- Plant response rating, Rice (rice (Oryza sativa); Flood, 62 g ai/ha): 0
- Plant response rating, Sedge, Umbrella [8, 16]: 50
- Plant response rating, Sedge, Umbrella ([8]; Flood, 62 g ai/ha): 0
- Plant response rating, Ducksalad [9, 16]: 20
- Plant response rating, Ducksalad ([9]; Flood, 62 g ai/ha): 0
- Plant response rating, Barnyardgrass [10, 16]: 15
- Plant response rating, Barnyardgrass ([10]; Flood, 62 g ai/ha): 0

SMILES: Cc1nn(-c2ccc(C(F)(F)F)cc2)nc1Cn1nc(C(F)(F)F)cc1C [Compound 134]
- Barnyardgrass plant response rating [1, 17]: 30
- Plant response rating, Barnyardgrass [1, 18]: 30
- Crabgrass, Large plant response rating [2, 17]: 90
- Plant response rating, Crabgrass, Large [2, 18]: 100
- Foxtail, Giant plant response rating [3, 17]: 50
- Plant response rating, Foxtail, Giant [3, 18]: 100
- Morningglory plant response rating [4, 17]: 100
- Plant response rating, Morningglory [4, 18]: 10
- Pigweed plant response rating [5, 17]: 100
- Plant response rating, Pigweed [5, 18]: 90
- Velvetleaf plant response rating [6, 17]: 50
- Plant response rating, Velvetleaf [6, 18]: 0
- Wheat plant response rating [7, 17]: 0
- Plant response rating, Wheat [7, 18]: 0
- Corn plant response rating (corn (Zea mays); [17]): 20
- Plant response rating, Corn (corn (Zea mays); [18]): 10
- Plant response rating, Rice (rice (Oryza sativa); [16]): 0
- Plant response rating, Rice (rice (Oryza sativa); Flood, 62 g ai/ha): 0
- Plant response rating, Sedge, Umbrella [8, 16]: 0
- Plant response rating, Sedge, Umbrella ([8]; Flood, 62 g ai/ha): 0
- Plant response rating, Ducksalad [9, 16]: 0
- Plant response rating, Ducksalad ([9]; Flood, 62 g ai/ha): 0
- Plant response rating, Barnyardgrass [10, 16]: 15
- Plant response rating, Barnyardgrass ([10]; Flood, 62 g ai/ha): 0
